# Patent publication US20230227409A1, “QUINOLINONE DERIVATIVES AS METHIONINE ADENOSYLTRANSFERASE 2A INHIBITORS” (IDEAYA BIOSCIENCES, INC., priority 2020, published 2023)
# Target: T1, Human MAT2A (Homo sapiens, UniProt P31153)
# T1 construct: Human MAT2A: Cepter, amino acids 1-395; purchased Cepter clone ID 329, lot 00023-123; clone ID 334, lot 00023-148
# Assay: Phosphate Sensor Fluorescence Assay (Biologic Example A)
# Assay type: biochemical
# Settings: MAT2A enzyme inhibition, Biological Example A; 500 uM L-methionine, 500 uM ATP; class symbols
# Description: (§1) The ability of the compound of present disclosure to inhibit MAT2A enzyme was determined using a Phosphate Sensor Fluorescence Assay described below.
# (§2) MAT2A enzyme is incubated with a test compound in DMSO or DMSO and its substrates (L-methionine and ATP) in a microtiter plate. The enzymatic reaction is stopped by the addition of Working Phosphate Sensor Mixture. The plate is analyzed for fluorescence at 450 nm. The high control (DMSO with enzyme and its substrates) gives high fluorescence which represents no inhibition of enzymatic activity while the low control (DMSO with MAT2A substrates and no enzyme) gives low fluorescence which represents full inhibition of enzymatic activity.
# Human MAT2A: Cepter, amino acids 1-395
# Assay Buffer: 50 mM Tris, pH 7.5/50 mM KCl/10 mM MgCl2/0.01% Brij-35/1 mM DTT/0.1% BGG/40 nM PNP/6 uM 7-MEG
# MAT2A: 10 nM for Cepter clone ID 329, lot 00023-123 before the addition of Working Phosphate Sensor Mixture • 5 nM for Cepter clone ID 334, lot 00023-148 before the addition of Working Phosphate Sensor Mixture
# (§3) L-methionine: 500 uM before the addition of Working Phosphate Sensor Mixture
# ATP: 500 uM before the addition of Working Phosphate Sensor Mixture Procedure:
# (§4) For the assay, a mixture of 1 mM L-methionine/1 mM ATP (2× final pre-stopped concentration) in assay buffer; MAT2A (2× final pre-stopped concentration) in Assay Buffer and Working Phosphate Sensor Mixture (1.5 uM Phosphate Sensor/30 mM EDTA in Assay Buffer, which is 3× final concentrations) were prepared. Test compounds or DMSO were added to the appropriate well suing D300e digital dispenser. 5 μl/well of Assay Buffer was added to the wells corresponding to the negative control and 5 μl/well of MAT2A was added to all the wells except for those corresponding to the negative control. After incubating the plate at room temperature for 15 minutes, 5 μl/well of the 1 mM L-methionine/1 mM ATP mixture was added to all wells. The plate was centrifuged at 1000 rpm for 1 minute and then incubated at room temperature for 1 hour. 5 μl of the Working Phosphate Sensor Mixture was added to all wells and the plate was centrifuged at 1000 rpm for 1 minute. The plate was read for fluorescence at 450 nm after exciting at 430 nm.
# (§5) Percent inhibition was calculated in Chemical and Biological Information System (CBIS), (ChemInnovation Software Inc.). Curves were fitted by CBIS as % inhibition vs. log [compound concentration] using a 4-parameter inhibition model.
# (§6) Fit=(A+((B−A)/(1+((C/x)^D))))
# (§7) Compounds 1.001-1.021 were tested using the procedure described in Biological Example A, described above. Compounds 1.022-1.026 were tested using the procedure described in Biological Example B, described above.
# T1 sequence (P31153 whole entry, the tested form may be a part): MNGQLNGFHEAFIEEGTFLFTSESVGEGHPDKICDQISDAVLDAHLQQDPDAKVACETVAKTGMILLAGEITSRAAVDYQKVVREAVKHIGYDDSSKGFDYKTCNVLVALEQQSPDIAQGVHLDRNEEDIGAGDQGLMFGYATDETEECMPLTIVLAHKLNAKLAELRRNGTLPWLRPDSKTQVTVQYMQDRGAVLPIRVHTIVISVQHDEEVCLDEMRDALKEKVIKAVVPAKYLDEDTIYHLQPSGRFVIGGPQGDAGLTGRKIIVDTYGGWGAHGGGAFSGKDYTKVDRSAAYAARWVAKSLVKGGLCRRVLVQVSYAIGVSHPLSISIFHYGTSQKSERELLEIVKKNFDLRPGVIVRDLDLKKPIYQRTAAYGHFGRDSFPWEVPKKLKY
row,SMILES,IC50 [nM]
1,"COc1c(-c2ccccc2)c2cc(Cl)ccc2[nH]c1=O [Compound 1.004, 6-chloro-3-methoxy-4-phenylquinolin-2(1H)-one]",200 to 500
2,"CS(=O)(=O)c1c(-c2ccccc2)c2cc(Cl)ccc2[nH]c1=O [Compound 1.005, 6-chloro-3-(methylsulfonyl)-4-phenylquinolin-2(1H)-one]",1000 to 10000
3,"O=c1[nH]c2ccc(Cl)cc2c(-c2ccccc2)c1Sc1ncnc2sccc12 [Compound 1.006, 6-chloro-4-phenyl-3-(thieno[2,3-d]pyrimidin-4-ylthio)quinolin-2(1H)-one]",1000 to 10000
4,"CNS(=O)(=O)c1c(-c2ccccc2)c2cc(Cl)ccc2[nH]c1=O [Compound 1.014, 6-chloro-N-methyl-2-oxo-4-phenyl-1,2-dihydroquinoline-3-sulfonamide]",1000 to 10000
5,"CN(C)c1c(-c2ccccc2)c2cc(Cl)ccc2[nH]c1=O [Compound 1.008, 6-chloro-3-(dimethylamino)-4-phenylquinolin-2(1H)-one]",1000 to 10000
6,O=c1[nH]c2ccccc2c(-c2ccccc2)c1Sc1ncnc2sccc12 [Compound 1.002],500 to 1000
7,O=c1[nH]c2ccc(Cl)cc2c(-c2ccccc2)c1S(=O)(=O)c1ccccc1 [Compound 1.003],1000 to 10000
8,"COc1c(-c2cccnc2)c2cc(Cl)ccc2[nH]c1=O [Compound 1.012, 6-chloro-3-methoxy-4-(pyridin-3-yl)quinolin-2(1H)-one]",200 to 500
9,"CCCNS(=O)(=O)c1c(-c2ccccc2)c2cc(Cl)ccc2[nH]c1=O [Compound 1.016, 6-chloro-2-oxo-4-phenyl-N-propyl-1,2-dihydroquinoline-3-sulfonamide]",1000 to 10000
10,"O=c1[nH]c2ccc(Cl)cc2c(-c2ccccc2)c1Sc1nc2ccccc2s1 [Compound 1.013, 3-(benzo[d]thiazol-2-ylthio)-6-chloro-4-phenylquinolin-2(1H)-one]",1000 to 10000

# Results, then the compound that gave them:
row,IC50 [nM],SMILES
1,10 to 200,"O=c1[nH]c2ccc(Cl)cc2c(-c2ccccc2)c1S [Compound 1.015, 6-chloro-3-mercapto-4-phenylquinolin-2(1H)-one]"
2,10 to 200,"O=c1[nH]c2ccc(Cl)cc2c(-c2ccccc2Cl)c1O [Compound 1.021, 6-chloro-4-(2-chlorophenyl)-3-hydroxyquinolin-2(1H)-one]"
3,10 to 200,"COc1c(-c2ccccc2)c2cc(Br)ccc2[nH]c1=O [Compound 1.009, 6-bromo-3-methoxy-4-phenylquinolin-2(1H)-one]"
4,10 to 200,"O=c1[nH]c2ccc(C(F)(F)F)cc2c(-c2ccccc2)c1O [Compound 1.020, 3-hydroxy-4-phenyl-6-(trifluoromethyl)quinolin-2(1H)-one]"
5,10 to 200,"COc1c(-c2ccccc2)c2cc(C(F)(F)F)ccc2[nH]c1=O [Compound 1.019, 3-methoxy-4-phenyl-6-(trifluoromethyl)quinolin-2(1H)-one]"
6,10 to 200,"Cc1ccccc1-c1c(O)c(=O)[nH]c2ccc(Cl)cc12 [Compound 1.017, 6-chloro-3-hydroxy-4-(o-tolyl)quinolin-2(1H)-one]"
7,10 to 200,"O=c1[nH]c2ccc(Cl)cc2c(-c2ccccc2)c1O [Compound 1.010, 6-chloro-3-hydroxy-4-phenylquinolin-2(1H)-one]"
8,10 to 200,"Cc1ccccc1-c1c(O)c(=O)[nH]c2ccc(C(F)(F)F)cc12 [Compound 1.018, 3-hydroxy-4-(o-tolyl)-6-(trifluoromethyl)quinolin-2(1H)-one]"
9,10 to 200,"COc1c(-c2ccccc2)c2cc(C3CC3)ccc2[nH]c1=O [Compound 1.011, 6-cyclopropyl-3-methoxy-4-phenylquinolin-2(1H)-one]"

# Same assay, conditions: MAT2A enzyme inhibition, Biological Example A; 500 uM L-methionine, 500 uM ATP; given as bound
row,IC50 [nM],SMILES
1,> 10000,"Cn1c(=O)cc(-c2ccccc2)c2cc(Cl)ccc21 [Compound 1.001, 6-chloro-1-methyl-4-phenylquinolin-2(1H)-one]"

# Same assay, conditions: MAT2A enzyme inhibition, Biological Example A; 500 uM L-methionine, 500 uM ATP; unit inferred
row,IC50 [nM],SMILES
1,> 10000,"CNc1c(-c2ccccc2)c2cc(Cl)ccc2[nH]c1=O [Compound 1.007, 6-chloro-3-(methylamino)-4-phenylquinolin-2(1H)-one]"

# Target: T1, Human MAT2A
# Assay: Phosphate Sensor Fluorescence Assay (Biologic Example B)
# Assay type: biochemical
# Settings: MAT2A enzyme inhibition, Biological Example B; 5.8 nM MAT2A, 500 uM L-methionine, 500 uM ATP; class symbols
# Description: as §1, §2
# MAT2A: 5.8 nM MAT2A (1-395), Cepter, clone ID 334, lot 00023-148 before the addition of Working Phosphate Sensor Mixture
# as §3
# ATP: 500 uM before the addition of Working Phosphate Sensor Mixture
# as §4, with “well using a Beckman Coulter Echo 550 acoustic liquid handler. 10 µL/well” for “well suing D300e digital dispenser. 5 μl/well”, “and 10 µL/well” for “and 5 μl/well”, “minutes, 10 μL/well” for “minutes, 5 μl/well”, “hour. 10 μL” for “hour. 5 μl”, “430 nm on a Tecan Spark microplate reader.” for “430 nm.”
# as §5, §6, §7
row,IC50 [nM],SMILES
1,10 to 200,"Cc1ncccc1-c1c(O)c(=O)[nH]c2ccc(Br)cc12 [Compound 1.025, 6-Bromo-3-hydroxy-4-(2-methylpyridin-3-yl)quinolin-2(1H)-one]"
2,10 to 200,"Cn1nccc1-c1c(O)c(=O)[nH]c2ccc(C(F)(F)F)cc12 [Compound 1.022, 3-Hydroxy-4-(1-methyl-1H-pyrazol-5-yl)-6-(trifluoromethyl)quinolin-2(1H)-one]"
3,10 to 200,"COc1cc(C(F)(F)F)cc2c(-c3ccccc3C)c(O)c(=O)[nH]c12 [Compound 1.024, 3-Hydroxy-8-methoxy-4-(o-tolyl)-6-(trifluoromethyl)quinolin-2(1H)-one]"
4,< 10,"Cc1ncccc1-c1c(O)c(=O)[nH]c2ccc(C(F)(F)F)cc12 [Compound 1.023, 3-Hydroxy-4-(2-methylpyridin-3-yl)-6-(trifluoromethyl)quinolin-2(1H)-one]"
5,10 to 200,"Cc1ncccc1-c1c(O)c(=O)[nH]c2ccc(Cl)cc12 [Compound 1.026, 6-Chloro-3-hydroxy-4-(2-methylpyridin-3-yl)quinolin-2(1H)-one]"
